SMILES strings stand for the structures.

Holding throughout (format): in vivo
Data set [1] is described as follows: Plasma concentrations in rats (plasma drug assay, H2G AUC oral vs i.v.). The following applies: rat, 10 mg/kg oral dose in propylene glycol, plasma H2G AUC vs 10 mg/kg intravenous H2G. The protocol:
A plasma concentration assay was done in male Sprague Dawley derived rats. The animals were fasted overnight prior to dosing but were permitted free access to water. Each of the compounds evaluated was prepared as a solution/suspension in propylene glycol at a concentration corresponding to 10 mg H2G/ml and shaken at room temperature for eight hours. Groups of rats (at least 4 rats in each group) received a 10 mg/kg (1 ml/kg) oral dose of each of the compounds; the dose was administered by gavage. At selected time points after dosing (0.25, 0.5, 1, 1.5, 2, 4, 6, 9, 12, 15, and 24 hours after dosing), heparinized blood samples (0.4 ml/sample) were obtained from a tail vein of each animal. The blood samples were immediately chilled in an ice bath. Within two hours of collection, the plasma was separated from the red cells by centrifugation and frozen till analysis. The components of interest were separated from the plasma proteins using acetonitrile precipitation. Following lyophilisation, and reconstitution, the plasma concentrations were determined by reverse phase HPLC with fluorescence detection. The oral uptake of H2G and other test compounds was determined by comparison of the H2G area under the curve derived from the oral dose compared to that obtained from a 10 mg/kg intravenous dose of H2G, administered to a separate group of rats. The results are depicted in Table 1B above.

Data set [2] can be described thus: Bioavailability testing in rats (24 h urinary H2G recovery). The following applies: rat; for Bioavailability (Table 2): 0.1 mmol/kg per oral, 24 hour urinary H2G recovery as percentage of recovery after 0.1 mmol/kg i.v. H2G. The protocol: The bioavailability of compounds of the invention were compared to the parent compound H2G and other H2G derivatives in a rat model. Compounds of the invention and comparative compounds were administered, per oral (by catheter into the stomach), to multiples of three individually weighed animals to give 0.1 mmol/kg of the dissolved prod rug in an aqueous (Example 4, 5, Comparative example 1-3, 5, 8), peanut oil (Comparative examples 4, 9, 10) or propylene glycol (Example 1-3, 6-12, 17, Comparative example 6, 7) vehicle dependent on the solubility of the test compound ingredient. The animals were fasted from 5 hours before to approximately 17 hours after administration and were maintained in metabolic cages. Urine was collected for the 24 hours following administration and frozen until analysis. H2G was analysed in the urine using the HPLC/UV assay of Stahle & Öberg, Antimicrob Agents Chemother. 36 No 2, 339-342 (1992), modified as follows: samples upon thawing are diluted 1:100 in aq dist H2O and filtered through an amicon filter with centrifugation at 3000 rpm for 10 minutes. Duplicate 30 μl samples are chromatographed on an HPLC column; Zorbax SB-C18; 75×4.6 mm; 3.5 micron; Mobile phase 0.05M NH4PO4, 3-4% methanol, pH 3.3-3.5; 0.5 ml/min; 254 nm, retention time for H2G at MeOH 4% and pH 3.33, ˜12.5 min. Bioavailability is calculated as the measured H2G recovery from each animal averaged over at least three animals and expressed as a percentage of the averaged 24 hour urinary H2G recovery from a group of 4 individually weighed rats respectively injected i.vjugularis with 0.1 mmol/kg H2G in a Ringer's buffer vehicle and analysed as above.
Comparative example 1 (H2G) was from the same batch as used for preparation of Examples 1 to 12. The preparation of Comparative example 2 (monoVal-H2G) and 3 (diVal-H2G) are shown in Examples 21 and 23. […] Comparative examples 5 & 8 (Val/Ac H2G) were prepared analogously to Example 4 using acetic anhydride with relevant monovaline H2G. […]

Data set [3] has as its system Herpes simplex virus-1 (HSV-1). Kind of data set: Antiviral activity in HSV-1-infected mouse (survival). The following applies: 21 and 83 mg/kg p.o. three times daily for 5 days, relative to equivalent dose of acyclovir. How it is done:
Herpes simplex virus-1 (HSV-1)-infected mouse serves as an animal model to determine the efficacy of antiviral agents in vivo. Mice inoculated intraperitoneally with HSV-1 at 1000 times the LD50 were administered either with a formulation comprising the currently marketed anti-herpes agent acyclovir (21 and 83 mg/kg in a 2% propylene glycol in sterile water vehicle, three times daily, p.o.) or the compound of Example 29 (21 and 83 mg/kg in a 2% propylene glycol in sterile water vehicle, three times daily, p.o.) for 5 consecutive days beginning 5 hours after inoculation. The animals were assessed daily for deaths. […] In the legend, the compound of the invention is denoted Ex. 29 and acyclovir is denoted ACV.

Turning to `Nc1nc2c(ncn2CC(CO)CCO)c(=O)[nH]1` (centres unmarked) [Comparative example 1, 9-[4-hydroxy-(2-hydroxymethyl)butyl]guanine], in data set [1], the “Bioavailability (Table 1B)” value is given as 3.8%. Besides, in data set [2], the “Bioavailability (Table 2)” value amounted to 8%. The “Bioavailability (Table 1A)” value in data set [2] (oral, urinary recovery assay of H2G, relative to i.v. H2G) was found to be 8%.

For `CCCCCCCCCCCCCCCCCC(=O)OC[C@H](CCOC(=O)[C@@H](N)C(C)C)Cn1cnc2c(=O)[nH]c(N)nc21.Cl` [Example 29], in data set [3], the “percentage of mice surviving the HSV-1 infection” value was “significantly greater”.

In the case of `CC(=O)CCCC(=O)OC[C@H](CCOC(=O)[C@@H](N)C(C)C)Cn1cnc2c(=O)[nH]c(N)nc21` [Example 10], the “Bioavailability (Table 2)” value in data set [2] is reported as 52%.
